Measurements reported in patent publication US5350743A, “Bisphosphonic acid derivatives, as bone resorption inhibitors” (Kaken Pharmaceutical Co., Ltd., priority 1991, dated 1994).

What was measured:
[1] = system: bone resorption activities by PTH; type: in vivo, rat (Wister male); details: sc, 10 mg/kg; for Serum calcium value, 1 day value (b) / Serum increased calcium value [(b)-(a)]: 24 h
Text: Now, the test method with respect to the antihypercalcemic activities of the compounds of the present invention by using rats having the thyroid gland and the pala thyroid gland removed, and the results will be described.
Wister male rats of 7 weeks old (150-170 g) were anesthetized with nenbutal, and the thyroid gland and the pala thyroid gland were surgically removed by the method disclosed by Russel R. G. et al, Calcif. Tissue, Res., 183-196 (1970) and by Muehlbauer R. C. et al, Mineral Electrolyte Metab., 5 296-300 (1981). After the operation, the rats were fed on normal food for three days, and on the fourth day, the blood was sampled, and the serum calcium value was measured by an atomic absorption method, whereby rats having the serum calcium value lowered to a level of from 5 to 7 mg/de were selected.
These rats were divided into groups so that each group consisted of five rats. A compound of the present invention was dissolved in a 0.5% CMC aqueous solution or physiological saline and adjusted for administration at a dose of 10 mg/kg. Such a solution was subcutaneously administered at a dose of 2 ml/kg once a day for three days. To a control group, a 0.5% CMC aqueous solution or physiological saline was administered. Next day, 0.2 ml of the blood was sampled, and the serum calcium value was measured in the same manner as described above (this value was designated as 0 day value (a)).
At the same time, an osmotic pump (2001 Model, manufactured by Alza Co.) having parathyroid hormone (PTH) (50 μg/0.2 ml physiological saline) sealed in, was subcutaneously embedded on the back of each rat, and 24 hours later, the blood was sampled from the aorta abdominalis, whereupon the serum calcium value was measured (this value was designated as one day value (b)).
From the obtained results, the serum increased calcium value was calculated by the following formula: [formula]

[2] = toxicity, LD50, subcutaneous injection to mice; details: mouse, in vivo, sc, ddy mice male five weeks old (22-27 g)
Description: LD50 of the compounds of Examples 2, 14, 16, 18, 33, 34 and 58 was at least 100 mg/kg when subcutaneously injected to ddy mice (male) of five weeks old (22-27 g).

SMILES	Serum calcium value, 0 day value (a) [1] [µg/mL]	Serum calcium value, 1 day value (b) [1] [µg/mL]	Serum increased calcium value [(b)-(a)] [1] [µg/mL]	LD50 [2] [mg/kg]
NCCC(O)(P(=O)(O)O)P(=O)(O)O [APD, reference compound]	60.2 ± 8.32	83.6 ± 3.13	23.4 ± 6.50	
O=P(O)(O)C(N1CCC2(CCCCC2)CC1)P(=O)(O)O [Example 2, 3-azaspiro[5.5]undecan-3-yl-methylene bisphosphonic acid]	47.2 ± 2.22	109.0 ± 8.47	61.8 ± 7.38	≥ 100
O=P(O)(O)C(N1CCC2(CC1)CC2(F)F)P(=O)(O)O [Example 4, 1,1-difluoro-6-azaspiro[2.5]octan-6-yl-methylene bisphosphonic acid]	51.4 ± 7.23	128.7 ± 3.31	77.3 ± 6.37	
O=P(O)(O)C(N1CCC2(CCCC2)CC1)P(=O)(O)O [Example 6, 8-azaspiro[4.5]decan-8-yl-methylene bisphosphonic acid]	40.3 ± 3.61	90.6 ± 5.30	50.3 ± 6.25	
O=P(O)(O)C(N1CCCC12CCCCC2)P(=O)(O)O [Example 8, 1-azaspiro[4.5]decan-1-yl-methylene bisphosphonic acid]	47.1 ± 4.17	109.8 ± 2.07	62.7 ± 4.27	
O=P(O)(O)C(N1CCCCC12CCCCC2)P(=O)(O)O [Example 10, 1-azaspiro[5.5]undecan-1-yl-methylene bisphosphonic acid]	45.5 ± 5.54	108.8 ± 6.80	63.3 ± 1.91	
O=P(O)(O)C(N1CCCC2(CCCCC2)C1)P(=O)(O)O [Example 12, 2-azaspiro[5.5]undecan-2-yl-methylene bisphosphonic acid]	53.9 ± 7.82	138.9 ± 4.29	85.0 ± 6.27	
C=C1CCN(C(P(=O)(O)O)P(=O)(O)O)CC1 [Example 14, 4-methylidenepiperidinomethylene bisphosphonic acid]	60.99 ± 2.67	68.34 ± 2.94	7.35 ± 2.65	≥ 100
CCCCCC=C1CCN(C(P(=O)(O)O)P(=O)(O)O)CC1 [Example 16, 4-hexylidenepiperidinomethylene bisphosphonic acid]	52.12 ± 1.86	53.30 ± 4.89	1.18 ± 3.70	≥ 100
CC=C1CCN(C(P(=O)(O)O)P(=O)(O)O)CC1 [Example 18, 4-ethylidenepiperidinomethylene bisphosphonic acid]	61.34 ± 7.49	66.05 ± 6.68	4.72 ± 4.05	≥ 100
CCC=C1CCN(C(P(=O)(O)O)P(=O)(O)O)CC1 [Example 20]	63.02 ± 3.75	71.73 ± 6.32	8.71 ± 2.72	
CCCC=C1CCN(C(P(=O)(OCC)OCC)P(=O)(OCC)OCC)CC1 [Example 21, 4-Butylidenepiperidinomethylene bisphosphonic acid ethyl ester]	60.87 ± 5.61	65.92 ± 7.91	5.05 ± 3.19	
CCOP(=O)(OCC)C(N1CCC(Cc2ccccc2)CC1)P(=O)(OCC)OCC [Example 27, 4-Benzylpiperidinomethylene bisphosphonic acid ethyl ester]	66.2 ± 3.13	79.5 ± 2.77	13.3 ± 1.62	
CCOP(=O)(OCC)C(N1CCC(C(N)=O)(N2CCCCC2)CC1)P(=O)(OCC)OCC [Example 29, 4-Carbamoyl-4-(1-piperidyl)piperidinomethylene bisphosphonic acid ethyl ester]	66.7 ± 5.91	74.8 ± 1.82	8.1 ± 4.35	
CCOP(=O)(OCC)C(N1CCC(F)(F)CC1)P(=O)(OCC)OCC [Example 31, 4,4-Difluoropiperidinomethylene bisphosphonic acid ethyl ester]	65.3 ± 3.15	73.1 ± 3.96	7.8 ± 3.57	
CC1(Cl)CCN(C(P(=O)(O)O)P(=O)(O)O)CC1 [Example 33, 4-Chloro-4-methylpiperidinomethylene bisphosphonic acid]	52.1 ± 1.73	53.3 ± 4.91	1.2 ± 3.77	≥ 100
CC1(O)CCN(C(P(=O)(O)O)P(=O)(O)O)CC1 [Example 34, 4-Hydroxy-4-methylpiperidinomethylene bisphosphonic acid]	61.0 ± 2.82	68.3 ± 2.87	7.4 ± 2.69	≥ 100
CCCCCCC1(O)CCN(C(P(=O)(O)O)P(=O)(O)O)CC1 [Example 35, 4-Hexyl-4-hydroxypiperidinomethylene bisphosphonic acid]	70.8 ± 3.85	84.5 ± 6.73	13.7 ± 4.13	
CCOP(=O)(OCC)C(N1CCC(C)(F)CC1)P(=O)(OCC)OCC [Example 37, 4-Fluoro-4-methylpiperidinomethylene bisphosphonic acid ethyl ester]	53.8 ± 2.10	55.7 ± 3.63	1.9 ± 3.10	
CC(C)(C)C1(O)CCN(C(P(=O)(O)O)P(=O)(O)O)CC1 [Example 54, 4-t-Butyl-4-hydroxypiperidinomethylene bisphosphonic acid]	67.3 ± 2.83	77.0 ± 3.74	9.7 ± 5.32	
CC1(C)CCCN(C(P(=O)(O)O)P(=O)(O)O)C1 [Example 58, 3,3-dimethylpiperidinomethylene bisphosphonic acid]	50.8 ± 2.35	130.4 ± 7.57	79.6 ± 7.07	≥ 100
CC1(C)CCN(C(P(=O)(O)O)P(=O)(O)O)CC1 [Example 60, 4,4-dimethylpiperidinomethylene bisphosphonic acid]	46.5 ± 8.69	110.4 ± 1.59	63.9 ± 2.15	
